Article PMC11601558, “SLC6A19 inhibition facilitates urinary neutral amino acid excretion and lowers plasma phenylalanine” (JCI Insight, 2024)
Values joined by “and” are separate entries in the source; they are usually repeats but may differ in a detail not shown here. Equal values may be shown once. Read-outs that look alike come from different tables or passages of the source. One block for each molecule: values may come before it.

Biological target: T1, mouse SLC6A19 (Mus musculus, UniProt Q9D687)
T1 construct: expressed in transfected cells
T1 sequence (Q9D687 1-634): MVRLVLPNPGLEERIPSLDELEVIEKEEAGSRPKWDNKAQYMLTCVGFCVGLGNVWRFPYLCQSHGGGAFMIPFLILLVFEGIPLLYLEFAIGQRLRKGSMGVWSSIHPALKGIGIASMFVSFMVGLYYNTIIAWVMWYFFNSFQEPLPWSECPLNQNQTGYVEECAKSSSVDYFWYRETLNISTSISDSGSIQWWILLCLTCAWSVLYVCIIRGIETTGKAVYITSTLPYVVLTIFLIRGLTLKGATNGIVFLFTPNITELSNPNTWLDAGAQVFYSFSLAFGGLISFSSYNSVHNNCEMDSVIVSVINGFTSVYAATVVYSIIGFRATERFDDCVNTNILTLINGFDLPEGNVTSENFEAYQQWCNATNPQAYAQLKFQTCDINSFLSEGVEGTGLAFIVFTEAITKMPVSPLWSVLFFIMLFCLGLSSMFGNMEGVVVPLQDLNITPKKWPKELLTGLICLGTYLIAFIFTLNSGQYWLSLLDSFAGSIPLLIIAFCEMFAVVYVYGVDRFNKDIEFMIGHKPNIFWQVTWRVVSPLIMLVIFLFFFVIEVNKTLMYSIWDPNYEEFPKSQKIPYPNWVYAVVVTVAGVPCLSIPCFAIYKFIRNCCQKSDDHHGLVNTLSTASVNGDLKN
T1 sequence (Q9ESG4 15-222 partner): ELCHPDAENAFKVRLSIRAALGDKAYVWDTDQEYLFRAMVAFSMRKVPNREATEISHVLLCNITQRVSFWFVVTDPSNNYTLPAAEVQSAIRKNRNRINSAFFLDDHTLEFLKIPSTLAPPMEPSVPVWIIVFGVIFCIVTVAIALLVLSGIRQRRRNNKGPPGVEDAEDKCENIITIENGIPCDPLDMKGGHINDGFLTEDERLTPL
Assay: Isoleucine transport assay, Flp-In T-REx 293 cells coexpressing mouse SLC6A19 and TMEM27
Type: cell-based
Settings: for isoleucine transport, Mouse (Fig 1f curve point) / isoleucine transport, Mouse (Fig 1c curve point): technical replicates; for IC50: read-out: IC50 against mouse SLC6A19, isoleucine transport assay
Procedure: Flp-In T-REx 293 cells (Thermo Fisher Scientific) were engineered to coexpress C-terminally V5-tagged human or mouse SLC6A19 under the control of a tetracycline-inducible promoter and human or mouse myc-DDK-tagged TMEM27 under the control of a constitutively active promoter. Cells were maintained in DMEM/F12 medium supplemented with 10% FBS, 100 units/mL penicillin, 100 μg/mL streptomycin, 200 μg/mL hygromycin, 10 μg/mL blasticidin, and 300 μg/mL geneticin (all from Thermo Fisher Scientific) at 37°C and 5% CO2.
Flp-In T-REx 293 cells stably coexpressing human or mouse SLC6A19 and TMEM27 were plated in 384-well plates in the presence of 1 μg/mL tetracyclin (Sigma-Aldrich) to induce the expression of SLC6A19. After 24 hours, cells were washed with live cell imaging solution (LCIS, Thermo Fisher Scientific) before JN-170 or JNT-517 were added to cells in 10-point concentration response curves in 0.5% DMSO in Krebs buffer (140 mM NaCl, 4.7 mM KCl, 2.5 mM CaCl2, 1.2 mM MgCl2, 11 mM HEPES, 10 mM glucose, pH 7.4). Cells were incubated with compounds for 1 hour at room temperature before 1 mM ^13C6,^15N1-labeled L-isoleucine (Cambridge Isotope Laboratories) was added as a transport substrate. After 20 minutes incubation at room temperature, cells were washed and lysed in H2O with 15 μM internal standard D-Leucine-D10 (CDN Isotopes) for 1–2 hours. A standard curve of ^13C6,^15N1-L-isoleucine was added to each plate following cell lysis. Plates were centrifuged at 3,700g to remove cell debris, and supernatant was diluted in 2 steps to a final 1:10 dilution in acetonitrile/0.1% formic acid. Sample desalting was performed on a high throughput RapidFire-365 (Agilent) using a hydrophilic interaction liquid chromatography (HILIC) column. A quantitative time-of-flight (Q-ToF) mass spectrometer (Agilent) was used to detect analytes. Agilent MassHunter quantitative analysis for time of flight was used as the integration software for measuring area under the peak for both ^13C6,^15N1-L-isoleucine and D-Leucine-D10 internal standard.
IC50 values for transport inhibition in cells overexpressing SLC6A19 and TMEM27 were calculated using a 4-parameter logistic regression in Collaborative Drug Discovery (CDD). Reported IC50 values are geometric means of 4–6 independent experiments. For postmortem intestinal transport assays, single outliers of quadruplicate replicates were excluded from the calculation if a signal value’s distance to the mean exceeded 35% of the signal average. The IC50 values of individual experiments were calculated with a 3- or 4-parameter logistic regression using GraphPad Prism 9. The reported IC50 value represents the geometric mean of n = 5 experiments from 3 individual donors. Statistical comparison of urinary Phe excretion in Pah^enu2 mice treated with vehicle or JN-170 was conducted using 1-way analysis of variance (ANOVA) with Tukey’s post hoc comparison. Statistical analysis of baseline-adjusted plasma Phe in mice treated with vehicle or JN-170 was determined by 2-way ANOVA with Dunnett’s post hoc comparison. All statistical analyses were performed using GraphPad Prism 9. For clinical studies, group sizes were not determined based on statistical power calculations. Statistical significance of pharmacodynamic results was not assessed. Values are reported as mean (urinary Phe excretion, T1/2, Cl/F), geometric mean (Cmax/D, AUC0-inf/D), or median (Tmax).

isoleucine transport, Mouse (Fig 1f curve point) (0.000722 uM): 84.1 and 94.9
isoleucine transport, Mouse (Fig 1f curve point) (0.00219 uM): 91.4 and 88.7
isoleucine transport, Mouse (Fig 1f curve point) (0.00438 uM): 84.6 and 91.9
isoleucine transport, Mouse (Fig 1f curve point) (0.015313 uM): 82.4 and 86.6
isoleucine transport, Mouse (Fig 1f curve point) (0.048125 uM): 65.9 and 67.7
isoleucine transport, Mouse (Fig 1f curve point) (0.144375 uM): 32.3 and 28.6
isoleucine transport, Mouse (Fig 1f curve point) (0.4375 uM): 14.6 and 12.2
isoleucine transport, Mouse (Fig 1f curve point) (1.3125 uM): -0.346 and -1.17
isoleucine transport, Mouse (Fig 1f curve point) (3.9375 uM): -4.28 and -6.91
isoleucine transport, Mouse (Fig 1f curve point) (11.8125 uM): -7.48 and -5.64
IC50 (geometric mean n = 6): 97 nM
Structure (SMILES): N#Cc1ccc(-c2noc([C@]3(C(F)(F)F)CCN(C(=O)NCCC4(N)CC4)C3)n2)cc1 [JN-170]

Structure (SMILES): NC(=O)N1CCC[C@@H](N(C(=O)NCc2ccc(OC(F)(F)F)cc2F)C2CC2)C1 [JNT-517]
isoleucine transport, Mouse (Fig 1c curve point) (0.000722 uM): 87.6 and 103
isoleucine transport, Mouse (Fig 1c curve point) (0.00219 uM): 108 and 105
isoleucine transport, Mouse (Fig 1c curve point) (0.00438 uM): 100 and 89.5
isoleucine transport, Mouse (Fig 1c curve point) (0.0153125 uM): 85.6 and 104
isoleucine transport, Mouse (Fig 1c curve point) (0.048125 uM): 88.3 and 96.6
isoleucine transport, Mouse (Fig 1c curve point) (0.144375 uM): 78.2 and 95.8
isoleucine transport, Mouse (Fig 1c curve point) (0.4375 uM): 86.6 and 108
isoleucine transport, Mouse (Fig 1c curve point) (1.3125 uM): 93.2 and 97.6
isoleucine transport, Mouse (Fig 1c curve point) (3.9375 uM): 89 and 86.1
isoleucine transport, Mouse (Fig 1c curve point) (11.8125 uM): 86 and 88.2
IC50: > 11800 nM
